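The compound was tested at five concentrations on cells cultured in 96-well plates, with a 48-hour exposure period. TGI denotes the concentration required for complete inhibition of growth.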
Assays:
Experiment in all cases: NCI tumour cell line growth inhibition, 48 h
A498 renal = system: A498 renal
HCT-15 colon = system: HCT-15 colon
HT29 colon = system: HT29 colon
IGROV1 ovarian = system: IGROV1 ovarian
M14 melanoma = system: M14 melanoma
MCF7 breast = system: MCF7 breast
MDA-MB-231 breast = system: MDA-MB-231 breast
OVCAR-5 ovarian = system: OVCAR-5 ovarian
OVCAR-8 ovarian = system: OVCAR-8 ovarian
SF-268 CNS = system: SF-268 CNS
SR leukemia = system: SR leukemia
U251 CNS = system: U251 CNS
UACC-257 melanoma = system: UACC-257 melanoma
UACC-62 melanoma = system: UACC-62 melanoma
UO-31 renal = system: UO-31 renal
HCC-2998 colon = system: HCC-2998 colon
HOP-62 NSCLC = system: HOP-62 NSCLC
MALME-3M melanoma = system: MALME-3M melanoma
NCI-H522 lung = system: NCI-H522 lung

Structure (SMILES)	TGI (A498 renal) [µM]	TGI (HCT-15 colon) [µM]	TGI (HT29 colon) [µM]	TGI (IGROV1 ovarian) [µM]	TGI (M14 melanoma) [µM]	TGI (MCF7 breast) [µM]	TGI (MDA-MB-231 breast) [µM]	TGI (OVCAR-5 ovarian) [µM]	TGI (OVCAR-8 ovarian) [µM]	TGI (SF-268 CNS) [µM]	TGI (SR leukemia) [µM]	TGI (U251 CNS) [µM]	TGI (UACC-257 melanoma) [µM]	TGI (UACC-62 melanoma) [µM]	TGI (UO-31 renal) [µM]	TGI (HCC-2998 colon) [µM]	TGI (HOP-62 NSCLC) [µM]	TGI (MALME-3M melanoma) [µM]	TGI (NCI-H522 lung) [µM]
CC(=O)OCC(C)(COC(C)=O)N1C(=O)C2C3c4ccccc4C(c4ccccc43)C2C1=O (stereo unspecified)	> 100	> 100	> 100	> 100	> 100	> 100	> 100	> 100	> 100	> 100	> 100	> 100	> 100	> 100	> 100				
Cn1c2ccccc2c(=O)c2cccc(C(=O)NCC(=O)O)c21		> 100	> 100	> 100	> 100	> 100	> 100	> 100	> 100	> 100	> 100	> 100	> 100	> 100	> 100	> 100	> 100	> 100	
CN(C(=O)C1=CCC2(CC1)OCCO2)c1ccccc1I	> 100	> 100	> 100	> 100	> 100	> 100	> 100	> 100	> 100		> 100	> 100	> 100	> 100	> 100	> 100	> 100		> 100
COc1nc2c(c(=O)n1C)N=C(c1ccccc1)[C@H](C(CC(=O)c1ccccc1)c1ccccc1)C(c1ccccc1)N2 (stereo partly specified)	> 100		> 100	> 100	> 100	> 100	78.7	> 100	> 100		> 100	> 100	> 100	> 100	> 100	> 100	> 100		> 100
O=C1OC(C2(O)OC(=O)c3ccccc32)c2ccccc21 (stereo unspecified)	> 100	> 100	> 100	> 100	> 100	> 100	> 100	> 100	> 100	> 100	> 100	> 100	> 100	> 100	> 100	> 100	> 100		> 100
COc1cc2c(cc1OC)C(=O)C1(C2)[C@H](c2ccccc2)C2C(=O)c3cc(OC)c(OC)cc3C2[C@H]1c1ccccc1 (stereo partly specified)	> 100	> 100	> 100	> 100	> 100		> 100	> 100	> 100	> 100	> 100	> 100	> 100	> 100	> 100	> 100	> 100	> 100	> 100
COC(=O)[C@H]1COC(=O)N1	> 100	> 100	> 100	> 100	> 100	> 100	> 100	> 100	> 100	> 100		> 100	> 100	> 100	> 100	> 100	> 100	> 100	> 100
COc1cc2c(cc1OC)CC1c3cc(OC)c(OC)cc3CCN1CC2 (stereo unspecified)	> 100	> 100	> 100	> 100	> 100	> 100	> 100	> 100	> 100	> 100	> 100	> 100	> 100	> 100	> 100	> 100	> 100		> 100
COc1ccc(NC(C)=O)c(C(O)CCNC(C)=O)c1 (stereo unspecified)	> 100	> 100	> 100	> 100	> 100	> 100	> 100	> 100	> 100	> 100	> 100	> 100	> 100	> 100	> 100				> 100
CC(=O)O[C@@]12CO[C@@H]1C[C@@H](O)[C@@]1(C)C(=O)[C@H](O)C3=C(C)[C@@H](OC(=O)[C@H](O)[C@@H](NC(=O)c4ccccc4)c4ccccc4)C[C@@](O)([C@@H](OC(=O)c4ccccc4)C12)C3(C)C (stereo partly specified)	> 100	> 100	0.124	> 100	> 100	> 100	43.8		> 100	> 100	> 50.1	> 100	> 100		> 78.8	0.0705	> 69.7		
COc1ccc(N=NC(=Nc2ccc(Cl)cc2)c2ccc(N(CCC#N)CCC#N)cc2)cc1	> 100	> 100	> 100	> 100	> 100	> 100	> 100	> 100	> 100	> 100	> 100	> 100	64.7	54.1	> 100	> 100	> 100		45.3
